Results from US7718391B2, “Assays for identifying modulators of rhomboid polypeptides” (Medical Research Council, priority 2001, dated 2010).
Positions count from the first letter of the chain named. Like-named read-outs stand apart in the source and are kept apart here. Non-standard residues stand in square brackets, D forms with d. Residues, ends and D or L forms follow the SMILES beside them. *: point of attachment. Sta = CC(C)C[C@H](N)[C@@H](O)CC(=O)O; Isovaleryl = CC(C)CC(=O)*; Nle = CCCC[C@H](N)C(=O)O; Cbz = O=C(OCc1ccccc1)*

Columns and labels:
Rhomboid-1 = molecular target: T1, Rhomboid-1 (Drosophila melanogaster, UniProt P20350); assay: Rhomboid-1 and Star dependent cleavage of GFP-Spitz in transfected COS cells (western blot of medium); assay type: cell-based
T1 construct: When co-expressed with Star and full-length Rhomboid-1 in the COS cell Spitz cleavage assay; expressed in transfected cells; host or cells: COS cells, pcDNA3.1 constructs, transient transfection
T1 sequence (P20350 1-355): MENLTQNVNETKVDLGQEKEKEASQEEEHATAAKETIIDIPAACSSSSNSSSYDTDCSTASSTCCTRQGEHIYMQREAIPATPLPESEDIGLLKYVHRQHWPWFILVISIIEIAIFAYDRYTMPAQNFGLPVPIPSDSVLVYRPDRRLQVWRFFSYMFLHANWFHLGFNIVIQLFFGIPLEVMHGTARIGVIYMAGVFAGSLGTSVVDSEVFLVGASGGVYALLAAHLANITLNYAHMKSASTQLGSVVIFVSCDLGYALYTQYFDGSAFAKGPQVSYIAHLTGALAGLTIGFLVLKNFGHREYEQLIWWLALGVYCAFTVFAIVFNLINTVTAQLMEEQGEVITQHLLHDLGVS
Procedure: COS cells were grown in DMEM medium (supplemented with 10% foetal calf serum), and transfected with FuGENE 6 Transfection Reagent (Roche). Cells were transfected in 35 mm culture wells with 25-250 ng of each construct and empty plasmid to bring the total DNA to 1 μg per well. 24-30 hours post-transfection the medium was replaced with serum-free medium; this was harvested 24 hours later and cells were lysed in SDS-sample buffer. GFP was detected in conditioned medium and cell lysates by western blot with a rabbit polyclonal antibody. For some experiments the serum-free medium was supplemented with the metalloprotease inhibitor batimastat (British Biotech) or ilomostat (Calbiochem). Cells were transfected as standard with 1 ng of Rhomboid-1 DNA (in 1 μg total DNA) and were then incubated in serum-free medium for 24 hours. The medium was then replaced with 0.5 ml serum free medium containing protease inhibitor at the indicated concentration and incubated for 1 hour. After 1 hour, the medium was collected, cleared by centrifugation, dialysed overnight against several changes of water and lyophilised. The resulting pellets were re-suspended in SDS sample buffer, boiled and analysed by Western blot. Transfections with a secreted form of Spitz were used in parallel to control for non-specific toxicity of the protease inhibitors or general inhibition of the secretory pathway. The proteolytic cleavage assay was recapitulated in a mammalian tissue culture system. Spitz was tagged with GFP near its N-terminus and transiently expressed in COS cells, in the presence or absence of Star and/or Rhomboid-1. The accumulation of the soluble extracellular fragment of GFP-Spitz in the cell medium was then measured by western blot.

[1] = system: uncleavable Spitz-TGFα chimera (Spitz with residues 140-160 replaced by the equivalent residues from TGFα, with the TGFα C-terminus)
[2] = system: uncleavable Spitz-TGFα chimera with Spitz residue G143 restored in the TGFα TMD
[3] = system: artificially truncated form of Spitz; assay: Control: expression or secretion of an artificially truncated (secreted) form of Spitz; assay type: cell-based, Drosophila; settings: this concentration (10-100:M)
Procedure: Cells were transfected as standard with 1 ng of Rhomboid-1 DNA (in 1 μg total DNA) and were then incubated in serum-free medium for 24 hours. The medium was then replaced with 0.5 ml serum free medium containing protease inhibitor at the indicated concentration and incubated for 1 hour. After 1 hour, the medium was collected, cleared by centrifugation, dialysed overnight against several changes of water and lyophilised. The resulting pellets were re-suspended in SDS sample buffer, boiled and analysed by Western blot. Transfections with a secreted form of Spitz were used in parallel to control for non-specific toxicity of the protease inhibitors or general inhibition of the secretory pathway.

[4] = molecular target: uncleavable Spitz-TGFα chimera with Spitz residue G143 restored in the TGFα TMD; remark: listed apart in the source
[5] = molecular target: uncleavable Spitz-TGFα chimera (Spitz with residues 140-160 replaced by the equivalent residues from TGFα, with the TGFα C-terminus); remark: listed apart in the source
[6] = molecular target: T2, Drosophila EGF receptor, P04412
T2 chain: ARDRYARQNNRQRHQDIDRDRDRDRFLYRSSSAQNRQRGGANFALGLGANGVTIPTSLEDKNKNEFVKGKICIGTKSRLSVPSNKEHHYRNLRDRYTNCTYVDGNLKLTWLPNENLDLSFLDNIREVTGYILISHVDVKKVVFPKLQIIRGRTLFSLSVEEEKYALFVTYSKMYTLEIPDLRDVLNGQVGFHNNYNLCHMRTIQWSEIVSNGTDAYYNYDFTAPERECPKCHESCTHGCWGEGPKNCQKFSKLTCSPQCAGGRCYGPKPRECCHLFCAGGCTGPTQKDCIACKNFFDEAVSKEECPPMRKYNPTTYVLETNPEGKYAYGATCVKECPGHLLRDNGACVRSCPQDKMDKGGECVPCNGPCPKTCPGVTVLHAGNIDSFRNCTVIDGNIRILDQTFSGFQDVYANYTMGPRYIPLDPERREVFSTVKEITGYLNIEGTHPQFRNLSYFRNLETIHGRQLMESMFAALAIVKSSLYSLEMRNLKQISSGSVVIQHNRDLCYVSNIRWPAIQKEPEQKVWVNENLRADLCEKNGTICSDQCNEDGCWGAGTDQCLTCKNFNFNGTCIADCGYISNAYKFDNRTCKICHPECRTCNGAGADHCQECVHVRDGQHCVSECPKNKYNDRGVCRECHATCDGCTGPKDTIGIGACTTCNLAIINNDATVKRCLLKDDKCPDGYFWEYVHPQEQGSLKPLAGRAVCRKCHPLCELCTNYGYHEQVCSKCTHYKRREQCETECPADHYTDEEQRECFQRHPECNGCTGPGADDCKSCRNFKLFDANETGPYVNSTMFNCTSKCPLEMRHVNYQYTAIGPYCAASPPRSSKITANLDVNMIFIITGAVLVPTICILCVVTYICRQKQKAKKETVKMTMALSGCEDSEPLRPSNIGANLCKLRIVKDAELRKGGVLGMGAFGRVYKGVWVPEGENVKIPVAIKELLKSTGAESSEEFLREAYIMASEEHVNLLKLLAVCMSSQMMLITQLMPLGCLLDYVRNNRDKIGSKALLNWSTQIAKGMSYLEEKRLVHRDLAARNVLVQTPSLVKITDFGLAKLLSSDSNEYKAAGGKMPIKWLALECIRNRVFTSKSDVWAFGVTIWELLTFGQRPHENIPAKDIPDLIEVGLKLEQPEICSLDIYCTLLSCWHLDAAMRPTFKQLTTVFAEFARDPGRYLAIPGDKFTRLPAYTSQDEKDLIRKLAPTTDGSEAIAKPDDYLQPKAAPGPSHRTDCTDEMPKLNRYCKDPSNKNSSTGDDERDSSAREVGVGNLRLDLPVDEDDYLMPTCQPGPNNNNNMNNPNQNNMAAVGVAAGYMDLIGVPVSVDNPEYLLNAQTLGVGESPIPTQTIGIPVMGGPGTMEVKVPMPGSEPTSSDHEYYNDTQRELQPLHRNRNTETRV

[7] = molecular target: human TGFα (EGFP inserted between residues 32 and 33)
Drosophila Delta, P10041 = molecular target: T3, Drosophila Delta, P10041
T3 chain: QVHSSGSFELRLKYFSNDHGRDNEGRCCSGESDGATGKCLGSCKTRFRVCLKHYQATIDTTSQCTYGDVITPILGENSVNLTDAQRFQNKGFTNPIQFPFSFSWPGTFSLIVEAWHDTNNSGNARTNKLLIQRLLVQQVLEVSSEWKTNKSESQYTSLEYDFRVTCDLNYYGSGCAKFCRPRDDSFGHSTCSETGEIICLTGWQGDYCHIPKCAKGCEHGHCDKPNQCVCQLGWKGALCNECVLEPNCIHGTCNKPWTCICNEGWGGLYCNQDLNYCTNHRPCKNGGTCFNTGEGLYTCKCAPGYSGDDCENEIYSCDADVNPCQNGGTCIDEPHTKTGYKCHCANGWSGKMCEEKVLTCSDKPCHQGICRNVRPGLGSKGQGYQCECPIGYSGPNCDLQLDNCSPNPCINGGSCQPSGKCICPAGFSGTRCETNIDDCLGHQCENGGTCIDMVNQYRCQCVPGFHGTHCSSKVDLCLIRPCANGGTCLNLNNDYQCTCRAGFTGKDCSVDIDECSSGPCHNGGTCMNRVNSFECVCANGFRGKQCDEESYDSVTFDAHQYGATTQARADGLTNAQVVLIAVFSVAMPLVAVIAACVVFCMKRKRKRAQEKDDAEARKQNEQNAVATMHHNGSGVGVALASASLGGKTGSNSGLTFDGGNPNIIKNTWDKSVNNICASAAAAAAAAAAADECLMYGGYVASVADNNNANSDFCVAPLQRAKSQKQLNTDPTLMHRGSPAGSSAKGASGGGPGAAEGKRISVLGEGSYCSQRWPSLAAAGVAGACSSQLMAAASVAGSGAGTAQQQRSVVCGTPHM

In the case of `CC(C)CC(=O)N[C@H](C(=O)N[C@H](C(=O)N[C@@H](CC(C)C)[C@@H](O)CC(=O)N[C@@H](C)C(=O)N[C@@H](CC(C)C)[C@@H](O)CC(=O)O)C(C)C)C(C)C` [pepstatin A] (Isovaleryl-VV[Sta]A[Sta]-OH), the “inhibition of Rhomboid activity, standard cleavage assay with panel of inhibitors” value (shortened to “inhibition of Rhomboid activity”) (Rhomboid-1; 50:M) is reported as “No inhibition”.

For Drosophila Rhomboid-2, the “protease activity against the uncleavable form of Spitz” value (from here on “protease activity … of Spitz”) [1] was “they could not cleave the TGFα TMD” and the “protease activity against the TGFα TMD with a restored G143” value (shortened to “protease activity against the TGFα TMD”) [2] was “did cleave when only G143 was added back”.

`CCOC(=O)[C@H]1O[C@@H]1C(=O)N[C@@H](CC(C)C)C(=O)NCCC(C)C` [E64d] was tested, and the “inhibition of Rhomboid activity” value (Rhomboid-1; 50:M) was “No inhibition”.

For `O=c1oc(Cl)c(Cl)c2ccccc12` [3,4-DCI], the “Rhomboid activity (summary statement)” value (Rhomboid-1) was “inhibit”, the “inhibition of Rhomboid activity” value (Rhomboid-1; 10-100:M) was “strongly inhibited” and the “expression or secretion of an artificially truncated form of Spitz (extracellular domain)” value [3] was “did not effect”.

With `CNC(=O)[C@H](Cc1c[nH]c2ccccc12)NC(=O)[C@@H](CC(=O)NO)CC(C)C` [ilomostat] the “Rhomboid-1-dependent cleavage of Spitz” value (Rhomboid-1; concentration not given) was “insensitive” and the “inhibition of Rhomboid activity” value (Rhomboid-1; concentration not given) was “No inhibition”.

For `CCCC[C@@H](C=O)NC(=O)[C@H](CC(C)C)NC(=O)[C@H](CC(C)C)NC(=O)OCc1ccccc1` [gamma secretase inhibitor I] (Cbz-Leu-Leu-[Nle]-aldehyde), the “inhibition of Rhomboid activity” value (Rhomboid-1; 25:M) was “No inhibition”.

For `Cc1ccc(S(=O)(=O)N[C@@H](Cc2ccccc2)C(=O)CCl)cc1` [TPCK], the “Rhomboid activity (summary statement)” value (Rhomboid-1) was “inhibit”, the “inhibition of Rhomboid activity” value (Rhomboid-1; 10-100:M) was “strongly inhibited” and the “expression or secretion of an artificially truncated form of Spitz (extracellular domain)” value [3] was “did not effect”.

In the case of `CC(=O)N[C@@H](CC(C)C)C(=O)N[C@@H](CC(C)C)C(=O)N[C@H](C=O)CCCNC(=N)N` [leupeptin], the “inhibition of Rhomboid activity” value (Rhomboid-1; 100:M) is reported as “No inhibition”.

For Drosophila Rhomboid-3, the “protease activity … of Spitz” value [1] was “they could not cleave the TGFα TMD” and the “protease activity against the TGFα TMD” value [2] was “did cleave when only G143 was added back”.

For `O=C(O)/C(S)=C/c1ccc(I)cc1` [PD150606], the “inhibition of Rhomboid activity” value (Rhomboid-1; concentration not given) was “No inhibition”.

B1: Human RHBDL2 (protein)
chain: MNLNMGREMKEELEEEEKMREDGGGKDRAKSKKVHRIVSKWMLPEKSRGTYLERANCFPPPVFIISISLAELAVFIYYAVWKPQKQWITLDTGILESPFIYSPEKREEAWRFISYMLVHAGVQHILGNLCMQLVLGIPLEMVHKGLRVGLVYLAGVIAGSLASSIFDPLRYLVGASGGVYALMGGYFMNVLVNFQEMIPAFGIFRLLIIILIIVLDMGFALYRRFFVPEDGSPVSFAAHIAGGFAGMSIGYTVFSCFDKALLKDPRFWIAIAAYLACVLFAVFFNIFLSPAN
In the case of B1, the “protease activity against the TGFα TMD” value [4] is reported as “did cleave when only G143 was added back” and the “protease activity … of Spitz” value [5] is reported as “they could not cleave the TGFα TMD”.

B2: Drosophila Rhomboid-1 (triple HA tag at the N-terminus) (protein)
chain: T1 sequence (P20350 1-355) with L4P
In the case of B2, the “cleavage of type-I membrane proteins” value [6] is reported as “Rhomboid-1 could not cleave other type-I membrane proteins including Drosophila EGF receptor”, the “cleavage of the uncleavable Spitz-TGFα chimera with single Spitz residues put back” value [4] is reported as “substitution of only Spitz residue G143 restored cleavage of this chimeric substrate” and the “cleavage of type-I membrane proteins” value (human TGN38) is reported as “Rhomboid-1 could not cleave other type-I membrane proteins including ... human TGN38”. The “cleavage of type-I membrane proteins” value [7] was “Rhomboid-1 could not cleave other type-I membrane proteins including ... human TGFα”, the “cleavage of type-I membrane proteins” value (Drosophila Delta, P10041) was “Rhomboid-1 could not cleave other type-I membrane proteins including ... Drosophila Delta” and the “cleavage of Spitz/TGFα TMD chimeras, without Star, with batimastat” value [5] was “replacing the remaining 5 residues (residues 140-160) abolished cleavage”.
